Measurements published in patent US20220218659A1, “PI3K/LYN-ACLY Signaling Inhibition” (Institute For Cancer Research d/b/a The Research Institute …, priority 2019, published 2022).
No end group written: not given here. *: point of attachment. Biotin = O=C1N[C@H]2[C@H](CS[C@H]2CCCCC(=O)*)N1

Tests used:
[1] = system: Histone H3 acetylation (H3K9ac); assay: Histone H3 (H3K9) acetylation by Western blot in HL-60 cells; format: cell-based; details: 16 hours, 10% FBS in RPMI
Experimental: Therefore, to evaluate the link between PI3K/Lyn and ACLY-mediated pathways in AML, HL-60 AML cell line were also used, in addition to primary patient-derived AML cells. HL-60 cell line was from American Type Culture Collection (ATCC). It was decided to use this particular HL-60 cell line for consistency herein since HL-60 cells express the active NRAS oncoprotein, similarly like the patient-derived AML cells (FIG. 7 and FIG. 8). HL-60 AML cell line was grown in RPMI 1640 medium supplemented with 10% fetal bovine serum, 2 mM 1-glutamine and 1% penicillin-streptomycin and maintained at 37° C. and 5% CO2. Cells were treated with the Lyn inhibitor (100 nM-1000 nM Bafetinib) or PI3K inhibitors (500 nM-2.5 μM LY294002 or 100 nM-2.0 μM BKM120) or vehicle (0.1% DMSO) in the presence of 10% FBS in RPMI media for 16 hours for Acetyl CoA measurement, phospholipid and histone acetylation analysis.
HL-60 cell line was seeded at a concentration of 1×10^6/ml in 10 ml media onto 40 ml culture-flask and cultured for 16 hours in the presence of indicated concentration of LYN or PI3K inhibitors or DMSO (0.1% dimethyl sulfoxide). Cells were harvested and lysed in 1 ml of ice-cold Pierce IP lysis buffer (Pierce Inc.) in the presence of Proteinase and phosphatase inhibitor cocktail (Thermofisher) and sonicated for 20 seconds. Lysates were cleared by centrifugation at 12000 rpm in cold conditions on bench top centrifuge, and the supernatant was used for protein determination by BCA assay kit (Pierce Inc). Equivalent amounts of protein lysate were mixed with sodium dodecylsulfate (2×SDS) and boiled for 8 minutes. Samples were resolved by 4-12% gradient sodium dodecylsulfate-polyacrylamide gel electrophoresis (NOVEX; Invitrogen) and blotted onto nitrocellulose filters. Membranes were blocked for 1 hour in 0.1% Tween-20 and 5% bovine serum albumin. Primary antibodies for H3K9ac, histone H3, Lyn, ACLY and GAPDH were added to 5% BSA at concentrations provided by the vendor's instructions and incubated with membranes overnight at 4° C. before removing by washing. […]

Acetyl-CoA = Acetyl-CoA measurement in HL-60 cells; format: cell-based; details: 16 hours
Experimental: HL-60 cells were cultured as above, treated with Bafetinib (500 nM), PI3K inhibitors (1 μM) for 16 hours. After treatment, cells were washed with medium and harvested for acetyl-CoA extraction from 5×10^6 cells per condition in triplicate, acetyl-CoA levels were measured using Pico-Probe Acetyl-CoA Fluorometric Assay kit (BioVision, Milpitas, Calif.) following the manufacturer's instructions.

ACLY binding to PIP2 = assay: Phospho-ACLY bound to PIP2 (PIP2 immunoprecipitation and western blotting) in transfected HEK293T cells; format: cell-based, human; details: ACLY-HA with active SRC kinase, 2 μM, 15 hours
PI/PIP/PIP2 = assay: Lipidomic analysis of PI, PIP and PIP2 in HL-60 cells; format: cell-based; details: 16 hours, 10% FBS in RPMI
Experimental: Phosphoinositides from HL60 cells treated with PI3K and Lyn inhibitors were compared with those from control cells (0.1% DMSO in culture medium). HL60 cells were treated with PI3K inhibitors LY294002, BKM120 or the Lyn inhibitor Bafetinib for 16 hours followed by TCA precipitation and freezing at −80° C. TCA precipitates were spiked with 20 ng of two internal standards (PIP 37:4; PIP2 37:4) and subjected to lipid extraction as described below and analyzed via LC/MS/MS. TMS-diazomethane derivatized phospholipids including phosphatidyl inositol (PI), phosphatidylinositol phosphate (PIP) and phosphatidylinositol bisphosphate (PIP2) values were measured using UPLC/MS/MS MRM Mass Spectrometry. […] Phosphatidylinositol trisphosphate (PIP3) was also measured but levels were too low in these cells to be analyzed. The endogenous PIP3 is several orders of magnitude less abundant than PIP2 in cells. It is well established that the basal PIP3 level is often undetectable in cells due to its low quantity and short halflife. […]
UPLC/MS: Dried, methylated cell extracts were suspended in 100 μl 100% methanol (LC-MS Optima grade, Fisher) prior to chromatographic separation and MS/MS. […] The effluent was monitored by a Waters XEVO TQ-S MS/MS in multiple reaction monitoring (MRM) in positive ion mode. […]

HL-60 AML cells = assay: MTT assay, growth of HL-60 AML cells; format: cell-based; details: within 72 hours
Experimental: HL-60 cells were treated with various concentrations of Bafetinib (Lyn kinase), BKM120 (PI3K) and BMS 303141 (ACLY) inhibitors in the presence of 10% RPMI media for 72 hours. The growth-inhibitory effect was examined using a […] assay (MTT; Sigma-Aldrich) as per the instructions of the manufactured kit. The experiment was performed in triplicate.

[2] = ACLY peptide binding on PIP specificity plates; details: PIP specificity plate, 20 pmols phosphoinositide per well, peptide 1.0 μg/ml
Experimental: ACLY peptides: Based on PIP2 binding motif analysis on ACLY using full length protein sequence, two PIP2 binding domains were predicted. The ACLY peptide-1 in the ATP-grasp domain sequence (peptide-1: […]; SEQ ID NO:15) and the ACLY peptide-2, in the CoA-binding domain sequence (peptide-2: […]; SEQ ID NO:5). N-terminally biotinylated peptides were synthesized (Genscript, Inc). ACLY-PIP specificity binding assay was performed using the N-terminally biotinylated peptides at 1.0 μg/ml concentration in 1% goat serum in Tris buffer saline (TB S) and the Cova PIP Specificity plate H-6300 (Echelon Biosciences) according to manufactures instructions. In brief, ACLY peptide-1 and peptide-2 at final concentration of 1.0 μg/ml in 100 μl volume were incubated for overnight at 4° C. After three washes with TBST buffer, the wells were incubated with 100 μl of HRP-conjugated Biotin antibody, followed by three washes. The bound peptides were detected with Super-Signal ELISA-Pico chemiluminescent substrate kit from ThermoFisher and reading the absorbance at 450 nm for 3-30 minutes.

For `Nc1cc(C(F)(F)F)c(-c2cc(N3CCOCC3)nc(N3CCOCC3)n2)cn1` [BKM120, Buparlisib], the “Histone H3 acetylation blocked (densitometric analysis)” value (from here on “Histone H3 acetylation blocked”) [1] was 97%, the “synthesis of Acetyl-CoA” value (Acetyl-CoA) was “significantly prevented” and the “phospho-ACLY bound to PIP2 versus DMSO” value (ACLY binding to PIP2) was “significant difference”. The “levels of total PI/PIP/PIP2 compared to DMSO control” value (PI/PIP/PIP2) was “overall decrease”.

`COc1ccc(-c2ccccc2)cc1NS(=O)(=O)c1cc(Cl)cc(Cl)c1O` [BMS303141] gave an IC50 (HL-60 AML cells) of 10 to 20 µM.

With `Cc1ccc(NC(=O)c2ccc(CN3CC[C@H](N(C)C)C3)c(C(F)(F)F)c2)cc1Nc1nccc(-c2cncnc2)n1` [Bafetinib] the “Histone H3 acetylation blocked” value [1] was 90%.

With `O=c1cc(N2CCOCC2)oc2c(-c3ccccc3)cccc12` [LY294002] the “Histone H3 acetylation blocked” value [1] was 60%.

With “ALTRKLIKKADQKGV (Biotin-ALTRKLIKKADQKGV) [ACLY peptide-2]” the “binding to PI(4,5)P2” value [2] was “binds to PI(4,5)P2”.
